In the assay the test system is HCT116 MTAP-deleted cell lines. Put plainly: Cell viability assay for HCT116 isogenic pair (CellTitre-Glo, 7 days). The following applies: Homo sapiens, HCT-116, 168 h, 7 days of treatment, cell line not given. Format: cell-based. The protocol: Control compounds were analyzed in parallel each time for quality control.
In Brief, on Day −1, a serial dilution of stock compounds in DMSO was performed using BioMek liquid handlers and dispensed using Echo acoustic dispenser into 384 well plates. Both tool compounds and sample compounds were spotted in the same plate for a dose response of PRMT5 inhibitors. Compound plates were stored as frozen until the cells were ready for seeding.
On Day 0, 100 HCT WT or HCT116 MTAP-deleted cells were seeded in compound-containing 384 well plates (50 μl per well) in RPMI 1640 media supplemented with 10% heat inactivated fetal bovine serum, Glutamax and penicillin streptomycin using EL460 liquid dispenser 5 μl cassette (BioTek, part no. 7170011). After equilibrating the plate in room temperature, the cells were incubated for 7 days inside the sealed incubator set at 37° C. with 90% humidity and 5% CO2.
On Day 7, the viability of cells was measured using a CTG assay kit (CellTitre-Glo; Promega cat no. G7573). Shortly, 40 μl per well of luminescent cell viability assay reagent were dispensed using EL460 liquid dispenser 5 μl cassette. CTG luminescence signal was measured using an EnVision plate reader (PerkinElmer) in accordance with manufacturer's instruction. The CCso values for each compound after 7 days of treatment were calculated using 4 parameter non-linear logistical curve fit.
For the cell viability assay ie CC50 shown in nM in Table 3.
`Cn1ncc2c(N)nc3cnc(C(=O)N4CCC[C@@H]5Oc6c(ccc(OC(F)(F)F)c6F)[C@@H]54)cc3c21` [Example Ca-7, (4-amino-1-methyl-1H-pyrazolo[4,3-c][1,7]naphthyridin-8-yl)((4aS,9bS)-6-fluoro-7-(trifluoromethoxy)-3,4,4a,9b-tetrahydrobenzofuro[3,2-b]pyridin-1(2H)-yl)methanone]: the cytotoxic concentration (CC50) (usually the concentration at which the toxic effect on the cells reaches its halfway point) came to 13 nM. As for `Cn1ncc2c(N)nc3ccc(C(=O)N4CCC[C@@H]5Oc6cc(C(F)(F)F)ccc6[C@@H]54)cc3c21` [Example Ca-5, (4-amino-1-methyl-1H-pyrazolo[4,3-c]quinolin-8-yl)((4aS,9bS)-7-(trifluoromethyl)-3,4,4a,9b-tetrahydrobenzofuro[3,2-b]pyridin-1(2H)-yl)methanone], the figure is 8 nM; as for `Cn1ncc2c(N)nc3ccc(C(=O)N4CCO[C@@H]5Cc6cc(Br)ccc6[C@@H]54)cc3c21` (racemic) [Example Ca-12, (Rac)-(4-amino-1-methyl-1H-pyrazolo[4,3-c]quinolin-8-yl)(7-bromo-2,3,9,9a-tetrahydroindeno[2,1-b][1,4]oxazin-4(4aH)-yl)methanone], 53 nM. The compound `C[C@H]1CN(C(=O)c2cc3c4c(c(N)nc3cn2)COC4)[C@H]2c3ccc(C(F)(F)F)cc3C[C@H]2O1` [Example Cb-1, (4-amino-1,3-dihydrofuro[3,4-c][1,7]naphthyridin-8-yl)((2S,4aS,9aR)-2-methyl-7-(trifluoromethyl)-2,3,9,9a-tetrahydroindeno[2,1-b][1,4]oxazin-4(4aH)-yl)methanone] gave a 50% cytotoxic concentration (CC50) of 71 nM.

`Nc1nc2cnc(C(=O)N3CCC[C@@H]4Cc5cc(C(F)(F)F)ccc5[C@@H]43)cc2c2c1COC2` (racemic) [Example Ca-23, (Rac)-(4-amino-1,3-dihydrofuro[3,4-c][1,7]naphthyridin-8-yl)((4aR,9bR)-7-(trifluoromethyl)-2,3,4,4a,5,9b-hexahydro-1H-indeno[1,2-b]pyridin-1-yl)methanone] registered a 50% cytotoxic concentration (CC50) of 134 nM. As for `Cn1ncc2c(N)nc3cc(Cl)c(C(=O)N4CCC[C@H]5Oc6cc(C(F)(F)F)ccc6[C@H]54)cc3c21` (stereo in doubt) [Example Ca-3, (4-amino-7-chloro-1-methyl-1H-pyrazolo[4,3-c]quinolin-8-yl)((4aR,9bR)-7-(trifluoromethyl)-3,4,4a,9b-tetrahydrobenzofuro[3,2-b]pyridin-1(2H)-yl)methanone], the figure is 5 nM; as for `C[C@H]1CN(C(=O)c2cc3c(cn2)nc(N)c2cnn(C)c23)[C@H]2c3ccc(Br)c(F)c3C[C@H]2O1` (single isomer, unassigned) [Example Ca-31], 32 nM. The compound `Cn1ncc2c(N)nc3cnc(C(=O)N4CC[C@H]5C[C@@H]4c4ccc(C(F)(F)F)cc4O5)cc3c21` [Example Ca-45, (4-amino-1-methyl-1H-pyrazolo[4,3-c][1,7]naphthyridin-8-yl)((2S,6R)-9-(trifluoromethyl)-3,4-dihydro-2H-2,6-methanobenzo[b][1,5]oxazocin-5(6H)-yl)methanone] gave a CC50 of 5 nM. In turn, `Cn1ncc2c(N)nc3cc(F)c(C(=O)N4CCO[C@@H]5Cc6cc(C(F)(F)F)ccc6[C@@H]54)cc3c21` (racemic) [Example Ca-10, (Rac)-(4-amino-7-fluoro-1-methyl-1H-pyrazolo[4,3-c]quinolin-8-yl)(7-(trifluoromethyl)-2,3,9,9a-tetrahydroindeno[2,1-b][1,4]oxazin-4(4aH)-yl)methanone] gave a cytotoxic concentration (CC50) of 10 nM. With `Cc1ccc2c(c1)C[C@H]1OCCN(C(=O)c3cc4c(cn3)nc(N)c3cnn(C)c34)[C@@H]21` [Example Ca-36, (4-amino-1-methyl-1H-pyrazolo[4,3-c][1,7]naphthyridin-8-yl)((4aS,9aR)-7-methyl-2,3,9,9a-tetrahydroindeno[2,1-b][1,4]oxazin-4(4aH)-yl)methanone] the figure was 95 nM. In turn, `Cn1ncc2c(N)nc3cnc(C(=O)N4CC[C@H]5C[C@@H]4c4ccc(Cl)c(F)c45)cc3c21` [Example Ca-42, (4-amino-1-methyl-1H-pyrazolo[4,3-c][1,7]naphthyridin-8-yl)((1R,5S)-7-chloro-6-fluoro-1,3,4,5-tetrahydro-2H-1,5-methanobenzo[c]azepin-2-yl)methanone] showed a CC50 of 25 nM. Take `Cn1ncc2c(N)nc3cnc(C(=O)N4CCO[C@@H]5Cc6cc(C(F)(F)F)ccc6[C@@H]54)cc3c21` [Example Ca-54, (4-amino-1-methyl-1H-pyrazolo[4,3-c][1,7]naphthyridin-8-yl)((4aS,9aR)-7-(trifluoromethyl)-2,3,9,9a-tetrahydroindeno[2,1-b][1,4]oxazin-4(4aH)-yl)methanone]: the half-maximal cytotoxic concentration (CC50) was found to be 16 nM. With `Cn1ncc2c(N)nc3cnc(C(=O)N4CC[C@H]5C[C@@H]4c4ccc(C(F)(F)F)nc4O5)cc3c21` [Example Ca-2, (4-amino-1-methyl-1H-pyrazolo[4,3-c][1,7]naphthyridin-8-yl)((2S,6R)-9-(trifluoromethyl)-3,4-dihydro-2H-2,6-methanopyrido[2,3-b][1,5]oxazocin-5(6H)-yl)methanone] the figure was 8 nM. On to `Cn1ncc2c(N)nc3ccc(C(=O)N4CCOC5CCc6ccccc6C54)cc3c21` (stereo not drawn) [Example Ca-20, 2,3,4a,5,6,10b-hexahydrobenzo[f][1,4]benzoxazin-1-yl-(4-amino-1-methyl-pyrazolo[4,3-c]quinolin-8-yl)methanone], for which the CC50 is 46 nM. This CC50 lies about 5.8-fold higher than the previous one. The compound `Cn1ncc2c(N)nc3cc(F)c(C(=O)N4CCC[C@@H]5Oc6cc(C(F)(F)F)ccc6[C@@H]54)cc3c21` [Example Ca-4, (4-amino-7-fluoro-1-methyl-1H-pyrazolo[4,3-c]quinolin-8-yl)((4aS,9bS)-7-(trifluoromethyl)-3,4,4a,9b-tetrahydrobenzofuro[3,2-b]pyridin-1(2H)-yl)methanone] registered a half-maximal cytotoxic concentration (CC50) of 3 nM. With `Cn1ncc2c3cc(C(=O)N4CCC[C@@H]5Oc6cc(C(F)(F)F)ccc6[C@@H]54)ncc3nc(N)c21` [Example Ca-43, (4-amino-3-methyl-3H-pyrazolo[3,4-c][1,7]naphthyridin-8-yl)((4aS,9bS)-7-(trifluoromethyl)-3,4,4a,9b-tetrahydrobenzofuro[3,2-b]pyridin-1(2H)-yl)methanone] the figure was 56 nM; with `CN(C(=O)c1cc2c(cn1)nc(N)c1cnn(C)c12)[C@H]1c2ccc(C(F)(F)F)cc2[C@H]2C[C@H]21` (single isomer, unassigned) [Example Ca-26], 25 nM.

Consider `Cn1ncc2c(N)nc3ccc(C(=O)N4CCCC5OCc6cc(C(F)(F)F)ccc6C54)cc3c21` (stereo not drawn) [Example Ca-9, (4-amino-1-methyl-1H-pyrazolo[4,3-c]quinolin-8-yl)(8-(trifluoromethyl)-2,3,4,4a,6,10b-hexahydro-1H-isochromeno[4,3-b]pyridin-1-yl)methanone], for which the midpoint of cytotoxicity, the CC50, lay at 56 nM. As for `Nc1nc2cnc(C(=O)N3C[C@@H](F)C[C@@H]4Oc5cc(C(F)(F)F)cc(F)c5[C@@H]43)cc2c2c1COC2` [Example Ca-57, (4-amino-1,3-dihydrofuro[3,4-c][1,7]naphthyridin-8-yl)((3S,4aS,9bS)-3,9-difluoro-7-(trifluoromethyl)-3,4,4a,9b-tetrahydrobenzofuro[3,2-b]pyridin-1(2H)-yl)methanone], the figure is 20 nM; as for `Cn1ncc2c(N)nc3ccc(C(=O)N4CC[C@@H]5Oc6cc(C(F)(F)F)ccc6[C@@H]54)cc3c21` (racemic) [Example Ca-55, Rac-(4-amino-1-methyl-1H-pyrazolo[4,3-c]quinolin-8-yl)((3aS,8bS)-6-(trifluoromethyl)-2,3,3a,8b-tetrahydro-1H-benzofuro[3,2-b]pyrrol-1-yl)methanone], 106 nM. For `C[C@H]1CN(C(=O)c2cc3c(cc2F)nc(N)c2cnn(C)c23)[C@H]2c3ccc(C(F)(F)F)cc3C[C@H]2O1` [Example Ca-22, (4-amino-7-fluoro-1-methyl-1H-pyrazolo[4,3-c]quinolin-8-yl)((2S,4aS,9aR)-2-methyl-7-(trifluoromethyl)-2,3,9,9a-tetrahydroindeno[2,1-b][1,4]oxazin-4(4aH)-yl)methanone], the midpoint of cytotoxicity, the CC50, lay at 11 nM. This CC50 lies about 9.6-fold lower than the previous one. With `Cn1ncc2c3cc(C(=O)N4CCC[C@@H]5Oc6cc(C(F)(F)F)cc(F)c6[C@@H]54)ncc3nc(N)c21` [Example Ca-52, (4-amino-3-methyl-3H-pyrazolo[3,4-c][1,7]naphthyridin-8-yl)((4aS,9bS)-9-fluoro-7-(trifluoromethyl)-3,4,4a,9b-tetrahydrobenzofuro[3,2-b]pyridin-1(2H)-yl)methanone] the figure was 48 nM; with `Cn1ncc2c(N)nc3cnc(C(=O)N4CC[C@H]5C[C@@H]4c4ccc(OC(F)F)cc45)cc3c21` [Example Ca-15, (4-amino-1-methyl-1H-pyrazolo[4,3-c][1,7]naphthyridin-8-yl)((1R,5S)-7-(difluoromethoxy)-1,3,4,5-tetrahydro-2H-1,5-methanobenzo[c]azepin-2-yl)methanone], 10 nM; with `CN(C(=O)c1cc2c(cn1)nc(N)c1cnn(C)c12)[C@@H]1c2ccc(C(F)(F)F)cc2[C@@H]2C[C@H]12` (single isomer, unassigned) [Example Ca-28], 1290 nM.

The values above are taken from US20250154172A1, “PRMT5 INHIBITORS AND USES THEREOF” (Gilead Sciences, Inc., priority 2023, published 2025).
